# Reference: patent US10604476B2, “Fluorinated amide derivatives and their uses as therapeutic agents” (Trillium Therapeutics Inc., priority 2015, dated 2020)
# Key:
# cold allodynia = experiment: Spinal nerve injury (SNI) model, acetone test; format: in vivo, rat
# From the text: The SNI model of neuropathic pain was developed in rats using the procedure described by Decostered and Woolf, Pain 2000, 87: 149-158. Under isoflurane anesthesia, the skin on the lateral surface of the thigh was incised and a section was made directly through the biceps femoris muscle exposing the sciatic nerve and its three terminal branches: the sural, common peroneal and tibial nerves. The common peroneal and the tibial nerves were tight-ligated with 6-0 suture and sectioned distal to the ligation, removing 2-4 mm of the distal nerve stump. Extreme care was taken to avoid any contact with or stretching of the intact sural nerve. Following surgery, hemostasis was confirmed and the muscles were sutured in layers using 4-0 suture and the skin was closed with 4-0 suture and metal clips. Cold allodynia was assessed by using the acetone test. In this test, 25 μl of acetone is sprayed on to the plantar surface of the hind paw. Evaporation of acetone causes cooling of the skin. The cold stimulus sets up nociceptive responses from the injured paw as evidenced by paw lifting, paw licking and grooming. The duration of the nociceptive responses is noted.
# [1] = test system: Metrazol seizure threshold; experiment: Timed intravenous infusion of Metrazol (iv Met) in mouse; format: in vivo; conditions: FIG. 1, p<0.001
# Description: The iv-Met test provides a measure of a test substance's ability to raise or lower seizure threshold. Two doses of the test compound are usually employed in this test, the MES ED50 and the TD50 determined following ip quantification testing in mice. Randomly selected mice are injected intraperitoneally 2 minutes apart with either the vehicle or the two test drug doses, maintaining the same order of dosing until 30 mice have been injected. At the previously determined TPE, 0.5% heparinized Metrazol solution is infused at a constant rate of 0.34 ml/min into a lateral tail vein of an unrestrained mouse. Infusion is by means of a Sage syringe pump (model 341 A) and a 10 ml B-D plastic syringe connected to a length of No 20 P.E. tubing. A 27 gauge stainless steel needle with the hub removed is connected to the tubing and inserted into a vein, bevel side up and secured to the tail by a narrow piece of adhesive tape. For the placement of the needle, the mouse is restrained in a cone shaped device with only the tail exposed. […] The time in seconds from the start of the infusion to the appearance of the “first twitch” and the onset of sustained clonus is recorded. The times to each endpoint are converted to mg/kg of Metrazol for each mouse as follows: The mean and standard error for each of the 3 groups and the significance of the difference between the test groups and the control are calculated.
Compound,cold allodynia in the neuropathic rats (cold allodynia),"seizure threshold (time to twitch, time to clonus, total dose of pentylenetetrazol to first twitch or clonus) [1]"
"NC(=O)COc1cc(C(F)(F)F)cc(C(F)(F)F)c1 [I(F), 2-[3,5 bis(trifluoromethyl)-phenoxy]acetamide;]",significantly reduced,
"C[C@@H](Oc1cc(Cl)cc(C(F)(F)F)c1)C(N)=O [I(D), (2R)-2-[3-chloro-5-(trifluoromethyl)-phenoxy]propanamide]",,elevate seizure threshold
